“Also recorded” adds a separate entry of the source. Where a name gives a salt, the structure may show the parent alone.
Key:
κ opioid receptor [1] = biological target: κ opioid receptor (Cavia porcellus, UniProt P41144); assay: Opioid receptor competition binding, [3H]U69,593, guinea pig brain membranes
δ opioid receptor [2] = biological target: δ opioid receptor (Rattus norvegicus, UniProt P33533); assay type: binding
μ opioid receptor = μ opioid receptor (Rattus norvegicus, UniProt P33535); assay: Opioid receptor competition binding, [3H]DAMGO, rat brain membranes
mice [3] = assay: Rotarod test of motor coordination after s.c. administration; assay type: in vivo, mouse; details: 10 mg/kg (dose range 1.25–10 mg/kg), 30 min
mice [4] = assay: Tail-flick test after s.c. administration; assay type: in vivo; details: Mus musculus, sc, 0.5 h, read-out: ED50 Tail-flick test
mice [5] = assay: Hot-plate test after s.c. administration; assay type: in vivo; details: Mus musculus, sc, 0.5 h, read-out: ED50 Hot-plate test
δ opioid receptor [6] = details: read-out: Ki δ; ref Spetea et al., 2005; cited from earlier work
κ opioid receptor [7] = details: read-out: Ki κ; ref Spetea et al., 2005; cited from earlier work

With `COc1ccc2c3c1O[C@@]1(Cc4ccccc4)C(=O)C=C[C@@]4(OC)[C@@H](C2)N(C)CC[C@]314` [Compound 3, 5β-Benzyl-14-methoxycodeinone hydrochloride] the Ki (κ opioid receptor [1]) was 1890 ± 453 nM, the Ki (δ opioid receptor [2]) was over 10000 nM and the Ki (μ opioid receptor) was 34.1 ± 6 nM.

In the case of `CN1CC[C@]23c4c5ccc(O)c4O[C@H]2[C@@H](O)C=C[C@H]3[C@H]1C5` [Morphine, Morphine hydrochloride], the “Effect on motor coordination (rotarod latencies)” value (mice [3]) is reported as “significant effect; also recorded: dose-dependent suppressive effects on motor coordination with significance”, the ED50 (mice [4]) is reported as 2.29 mg/kg and the ED50 (mice [5]) is reported as 2.63 mg/kg.

From publication PMC2954314 (European Journal of Pharmaceutical Sciences, 2010)
